In general, IC50 refers to the concentration that gives 50% inhibition.

The target of series [1] is NaV1.7 (Homo sapiens, UniProt Q15858). Kind of series: block of NaV1.7 (inactivated vs resting state). Format: biochemical. From the text:
NaV1.7 is expressed primarily in the peripheral nervous system in both sensory and sympathetic neurons (Raymond, C. K., et al., op. cit.). Loss-of-function mutations in SCN9A (the gene encoding the alpha subunit of the NaV1.7 sodium channel) cause a human condition known as congenital indifference to pain characterized by an inability to perceive pain (Cox, J. J., et al., Nature (2006), 444:894-98; Goldberg, Y. P., et al., Clin Genet (2007), 71:311-9). Gain-of-function mutations in SCN9A are associated with inherited erythromelalgia (IEM) (Drenth, J. P., et al., J Invest Dermatology (2005), 124:1333-8), which is characterized by spontaneous or easily evoked severe pain. Furthermore, up to 29% of biopsy-proven cases of idiopathic small-fiber neuropathy manifesting mainly as distal severe pain (Faber, C. G., et al., Ann Neurol (2012), 71:26-39) are associated with gain-of-function NaV1.7 channel mutations.

Series [2] has as its system complete Freund's adjuvant (CFA) model of inflammatory pain. Description: CFA model of inflammatory pain. Format: in vivo, rat. The settings on record: topical, dose-response; model not restated (follows CFA paragraph).
Series [3] is described as follows: minipig repeated dermal dosing: spiro-oxindole compound in plasma (LC-MS/MS). Format: in vivo, Göttingen minipig. Conditions: minipigs. The method, then: The study was carried out on minipigs to obtain information on plasma pharmacokinetics, tissue distribution and accumulation, excretion and metabolic profile of the spiro-oxindole compound after daily dermal administration of a pharmaceutical composition of the invention for 20 consecutive days followed by a single dose of [^14C]-spiro-oxindole compound Day 21.
Midazolam was administered on Days 0 and 20 to 3 male minipigs by bolus intravenous injection at a dose level 0.5 mg/kg.
The [^14C]-spiro-oxindole composition was prepared as follows:
Dosages of test formulations were applied with foil and spread using nitrile gloves to form a thin uniform layer to the treatment site.

Series [4] is described as follows: minipig: metabolite profile of urine and bile (UPLC). In kind it is in vivo, Göttingen minipig. Conditions: none consistent with spiro-oxindole compound. From the text:
Attempts to separate radioactive components using HPLC with radioactivity detection present in plasma, liver and excreta were unsuccessful due to low radioactivity levels in samples submitted for further analysis.

Sequence of NaV1.7 (Q15858 whole entry): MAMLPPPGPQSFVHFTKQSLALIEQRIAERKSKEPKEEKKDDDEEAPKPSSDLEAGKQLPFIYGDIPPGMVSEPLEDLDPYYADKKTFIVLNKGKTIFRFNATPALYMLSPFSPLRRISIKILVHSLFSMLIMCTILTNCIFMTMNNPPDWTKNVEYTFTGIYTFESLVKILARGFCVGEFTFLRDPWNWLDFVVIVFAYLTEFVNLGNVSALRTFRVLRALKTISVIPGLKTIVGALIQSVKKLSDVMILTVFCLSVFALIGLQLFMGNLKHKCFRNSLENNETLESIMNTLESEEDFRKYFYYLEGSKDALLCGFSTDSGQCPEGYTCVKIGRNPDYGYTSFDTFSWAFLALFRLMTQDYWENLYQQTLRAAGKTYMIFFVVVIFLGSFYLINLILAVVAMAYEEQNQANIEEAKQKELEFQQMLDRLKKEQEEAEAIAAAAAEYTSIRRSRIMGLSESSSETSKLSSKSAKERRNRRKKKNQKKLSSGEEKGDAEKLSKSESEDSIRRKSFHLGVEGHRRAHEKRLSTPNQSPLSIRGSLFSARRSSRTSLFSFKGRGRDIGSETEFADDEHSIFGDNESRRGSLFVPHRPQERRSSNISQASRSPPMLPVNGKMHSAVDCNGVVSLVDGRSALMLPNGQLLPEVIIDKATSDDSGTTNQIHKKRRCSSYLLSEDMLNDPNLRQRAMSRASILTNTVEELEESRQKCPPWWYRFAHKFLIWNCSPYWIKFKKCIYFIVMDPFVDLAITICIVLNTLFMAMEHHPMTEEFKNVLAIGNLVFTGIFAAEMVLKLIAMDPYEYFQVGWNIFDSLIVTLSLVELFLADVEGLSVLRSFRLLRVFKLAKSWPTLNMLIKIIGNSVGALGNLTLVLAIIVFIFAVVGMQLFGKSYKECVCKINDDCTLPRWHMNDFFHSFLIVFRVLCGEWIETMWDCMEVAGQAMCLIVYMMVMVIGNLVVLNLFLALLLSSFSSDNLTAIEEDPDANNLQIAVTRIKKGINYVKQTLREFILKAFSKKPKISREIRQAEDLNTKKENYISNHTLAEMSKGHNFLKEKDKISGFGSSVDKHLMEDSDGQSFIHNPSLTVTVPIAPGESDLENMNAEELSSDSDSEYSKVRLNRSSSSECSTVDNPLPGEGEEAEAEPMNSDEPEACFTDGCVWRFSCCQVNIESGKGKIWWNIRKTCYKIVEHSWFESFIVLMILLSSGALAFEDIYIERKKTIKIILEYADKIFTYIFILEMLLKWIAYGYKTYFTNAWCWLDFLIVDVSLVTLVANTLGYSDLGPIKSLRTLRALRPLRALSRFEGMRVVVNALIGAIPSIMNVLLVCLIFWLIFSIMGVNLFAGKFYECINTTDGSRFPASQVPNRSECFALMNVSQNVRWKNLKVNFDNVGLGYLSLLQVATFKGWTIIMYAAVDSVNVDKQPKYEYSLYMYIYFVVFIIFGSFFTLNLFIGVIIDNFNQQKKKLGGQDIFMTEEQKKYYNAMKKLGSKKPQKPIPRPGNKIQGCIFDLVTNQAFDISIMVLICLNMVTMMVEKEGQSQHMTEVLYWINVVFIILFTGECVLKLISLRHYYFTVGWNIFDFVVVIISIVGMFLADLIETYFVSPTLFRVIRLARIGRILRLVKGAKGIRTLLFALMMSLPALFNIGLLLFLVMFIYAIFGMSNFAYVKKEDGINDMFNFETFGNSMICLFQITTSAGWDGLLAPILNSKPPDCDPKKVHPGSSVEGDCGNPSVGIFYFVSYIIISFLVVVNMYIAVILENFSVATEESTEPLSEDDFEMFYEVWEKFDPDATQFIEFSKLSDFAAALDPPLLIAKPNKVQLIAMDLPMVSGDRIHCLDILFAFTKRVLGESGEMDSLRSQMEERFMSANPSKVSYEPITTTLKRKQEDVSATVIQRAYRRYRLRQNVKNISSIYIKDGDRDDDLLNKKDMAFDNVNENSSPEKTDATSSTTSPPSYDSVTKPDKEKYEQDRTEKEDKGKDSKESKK

`O=C1N(Cc2ccc(C(F)(F)F)o2)c2ccccc2[C@]12COc1cc3c(cc12)OCO3` [spiro-oxindole compound, (S)-1′-{[5-(trifluoromethyl)furan-2-yl]methyl}spiro[furo[2,3-f][1,3]benzodioxole-7,3′-indol]-2′(1′H)one]: the “potency of the block, inactivated state compared with resting state” value in series [1] (NaV1.7) is “approximately 220 fold”. In series [1] (inactivated state), the midpoint of inhibition, the IC50, lay at 0.05 µM. In addition, the IC50 in series [1] (resting state) came out at 11.3 µM. Besides, in series [2], the “dose with greatest effect (highest dose tested)” value is 8 % (w/w) and the minimum effective dose is reported as 2 % (w/w). Also, the Cmax in series [3] (male, Göttingen, minipig, plasma, topical or ocular, 70 mg spiro-oxindole compound equivalents ointment/kg, 21 days repeated dermal dosing, read-out: mean maximum observed concentration [Cmax]) is 11.7 ng/mL. In addition, in series [3] (after last dose (Day 21)), the “time post dose at which mean plasma concentrations were maximal” value is 8 h. In series [3] (repeated dermal dosing), the “apparent steady state achieved” value is “between Days 14 and 21”; the “systemic exposure overall (in words)” value is reported as “low systemic exposure”. Besides, in series [4] (bile (gall bladder contents)), the “radioactive peaks observed by UPLC” value is reported as “another two peaks”. In addition, the “radioactive peaks observed by UPLC” value in series [4] (urine) is recorded as “two distinct peaks”.

The values are drawn from US20150216794A1, “METHODS OF TREATING PAIN ASSOCIATED WITH OSTEOARTHRITIS OF A JOINT WITH A TOPICAL FORMULATION OF A SPIRO-OXINDOLE COMPOUND” (IVAX International GmbH, priority 2014, published 2015).
